Measured values taken from the supplement of paper PMC4862054.

Key:
Conditions in all cases: incubation time: 72 h
MFM-223 [1] = assay: normalised response (% of control), CellTiter-Glo; higher = more viable cells (100 = DMSO, 0 = benzethonium chloride kill control)
Outline: (§1)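 Breast cancer cell lines in 20 µl suspension were added to 384-well plates containing compound at 5 concentrations, spaced in 10-fold steps across a 10,000-fold range chosen for each compound, and incubated for 72 h. CellTox Green fluorescence was read at 485/520 nm, followed by CellTiter-Glo luminescence after 10 min at room temperature. Signals on each plate were normalised so that 0.1 % DMSO equals 100 and a positive kill control equals 0. Every value in the table is the normalised signal at one concentration of the series.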

MDA-MB-453 [2] = assay: as above
Outline: as §1

HDQ-P1 [3] = assay: as above
Outline: as §1

HCC1599 [4] = assay: as above
Outline: as §1

CAL-85-1 [5] = assay: as above
Outline: as §1

DU-4475 [6] = assay: as above
Outline: as §1

BT-474 [7] = assay: as above
Outline: as §1

CAL-148 [8] = assay: as above
Outline: as §1

HCC1143 [9] = assay: as above
Outline: as §1

MCF-10A [10] = assay: as above
Outline: as §1

SK-BR-3 = assay: as above
Outline: as §1

MDA-MB-231 [11] = assay: as above
Outline: as §1

CAL-120 [12] = assay: as above
Outline: as §1

MDA-MB-468 [13] = assay: as above
Outline: as §1

HCC1937 [14] = assay: as above
Outline: as §1

CAL-51 [15] = assay: as above
Outline: as §1

Hs578T [16] = assay: as above
Outline: as §1

MDA-MB-436 [17] = assay: as above
Outline: as §1

BT-549 [18] = assay: as above
Outline: as §1

MFM-223 [19] = assay: normalised response (% of control), CellTox Green; higher = less cell death (100 = DMSO, 0 = benzethonium chloride kill control)
Outline: as §1

MDA-MB-453 [20] = assay: as above
Outline: as §1

HDQ-P1 [21] = assay: as above
Outline: as §1

HCC1599 [22] = assay: as above
Outline: as §1

CAL-85-1 [23] = assay: as above
Outline: as §1

DU-4475 [24] = assay: as above
Outline: as §1

BT-474 [25] = assay: as above
Outline: as §1

CAL-148 [26] = assay: as above
Outline: as §1

HCC1143 [27] = assay: as above
Outline: as §1

MCF-10A [28] = assay: as above
Outline: as §1

MDA-MB-231 [29] = assay: as above
Outline: as §1

CAL-120 [30] = assay: as above
Outline: as §1

MDA-MB-468 [31] = assay: as above
Outline: as §1

HCC1937 [32] = assay: as above
Outline: as §1

CAL-51 [33] = assay: as above
Outline: as §1

Hs578T [34] = assay: as above
Outline: as §1

MDA-MB-436 [35] = assay: as above
Outline: as §1

BT-549 [36] = assay: as above
Outline: as §1

Compound: O=C(Cc1ccc(-c2ccc(OCCN3CCOCC3)cc2)cn1)NCc1ccccc1 [KX2-391] (100 nM)
- normalised response (MFM-223 [1]): 63.1%
- normalised response (MDA-MB-453 [2]): 72.7%
- normalised response (HDQ-P1 [3]): 72.6%
- normalised response (HCC1599 [4]): 32.3%
- normalised response (CAL-85-1 [5]): 31.8%
- normalised response (DU-4475 [6]): 49.4%
- normalised response (BT-474 [7]): 66%
- normalised response (CAL-148 [8]): 40.6%
- normalised response (HCC1143 [9]): 44.7%
- normalised response (MCF-10A [10]): 61%
- normalised response (SK-BR-3): 19.5%
- normalised response (MDA-MB-231 [11]): 64.4%
- normalised response (CAL-120 [12]): 67.8%
- normalised response (MDA-MB-468 [13]): 44.6%
- normalised response (HCC1937 [14]): 73.2%
- normalised response (CAL-51 [15]): 32.2%
- normalised response (Hs578T [16]): 29.9%
- normalised response (MDA-MB-436 [17]): 39.5%
- normalised response (BT-549 [18]): 50.1%
- normalised response (MFM-223 [19]): 75.7%
- normalised response (MDA-MB-453 [20]): 101%
- normalised response (HDQ-P1 [21]): 80.7%
- normalised response (HCC1599 [22]): 93.7%
- normalised response (CAL-85-1 [23]): 30.9%
- normalised response (DU-4475 [24]): 95.7%
- normalised response (BT-474 [25]): 85.1%
- normalised response (CAL-148 [26]): 65.5%
- normalised response (HCC1143 [27]): 109%
- normalised response (MCF-10A [28]): 55.3%
- normalised response (MDA-MB-231 [29]): 51.3%
- normalised response (CAL-120 [30]): 87.3%
- normalised response (MDA-MB-468 [31]): -39.4%
- normalised response (HCC1937 [32]): 98.5%
- normalised response (CAL-51 [33]): 35.6%
- normalised response (Hs578T [34]): -25.9%
- normalised response (MDA-MB-436 [35]): 76.9%
- normalised response (BT-549 [36]): 78.5%

Compound: CCN(CC)CCCC(C)Nc1c2ccc(Cl)cc2nc2ccc(OC)cc12 (stereo not drawn) [Mepacrine] (500 nM)
- normalised response (MFM-223 [1]): 97.2%
- normalised response (MDA-MB-453 [2]): 101%
- normalised response (HDQ-P1 [3]): 104%
- normalised response (HCC1599 [4]): 101%
- normalised response (CAL-85-1 [5]): 103%
- normalised response (DU-4475 [6]): 99.8%
- normalised response (BT-474 [7]): 98.9%
- normalised response (CAL-148 [8]): 86.1%
- normalised response (HCC1143 [9]): 104%
- normalised response (MCF-10A [10]): 105%
- normalised response (SK-BR-3): 90.8%
- normalised response (MDA-MB-231 [11]): 103%
- normalised response (CAL-120 [12]): 44.1%
- normalised response (MDA-MB-468 [13]): 93.1%
- normalised response (HCC1937 [14]): 98.4%
- normalised response (CAL-51 [15]): 64%
- normalised response (Hs578T [16]): 98.7%
- normalised response (MDA-MB-436 [17]): 106%
- normalised response (BT-549 [18]): 113%
- normalised response (MFM-223 [19]): 96.9%
- normalised response (MDA-MB-453 [20]): 104%
- normalised response (HDQ-P1 [21]): 85.1%
- normalised response (HCC1599 [22]): 93.8%
- normalised response (CAL-85-1 [23]): 104%
- normalised response (DU-4475 [24]): 108%
- normalised response (BT-474 [25]): 103%
- normalised response (CAL-148 [26]): 74.7%
- normalised response (HCC1143 [27]): 109%
- normalised response (MCF-10A [28]): 85.1%
- normalised response (MDA-MB-231 [29]): 99.1%
- normalised response (CAL-120 [30]): -33%
- normalised response (MDA-MB-468 [31]): 109%
- normalised response (HCC1937 [32]): 111%
- normalised response (CAL-51 [33]): 66.9%
- normalised response (Hs578T [34]): 63.5%
- normalised response (MDA-MB-436 [35]): 82.7%
- normalised response (BT-549 [36]): 103%

Compound: C=CCc1cccc(/C=N/NC(=O)CN2CCN(Cc3ccccc3)CC2)c1O [PAC-1] (100 nM)
- normalised response (MFM-223 [1]): 102%
- normalised response (MDA-MB-453 [2]): 102%
- normalised response (HDQ-P1 [3]): 99.6%
- normalised response (HCC1599 [4]): 118%
- normalised response (CAL-85-1 [5]): 103%
- normalised response (DU-4475 [6]): 105%
- normalised response (BT-474 [7]): 102%
- normalised response (CAL-148 [8]): 103%
- normalised response (HCC1143 [9]): 101%
- normalised response (MCF-10A [10]): 111%
- normalised response (SK-BR-3): 108%
- normalised response (MDA-MB-231 [11]): 107%
- normalised response (CAL-120 [12]): 103%
- normalised response (MDA-MB-468 [13]): 99.4%
- normalised response (HCC1937 [14]): 97.1%
- normalised response (CAL-51 [15]): 91.8%
- normalised response (Hs578T [16]): 104%
- normalised response (MDA-MB-436 [17]): 99.3%
- normalised response (BT-549 [18]): 104%
- normalised response (MFM-223 [19]): 98.7%
- normalised response (MDA-MB-453 [20]): 107%
- normalised response (HDQ-P1 [21]): 100%
- normalised response (HCC1599 [22]): 99.4%
- normalised response (CAL-85-1 [23]): 99.7%
- normalised response (DU-4475 [24]): 102%
- normalised response (BT-474 [25]): 103%
- normalised response (CAL-148 [26]): 107%
- normalised response (HCC1143 [27]): 110%
- normalised response (MCF-10A [28]): 75.2%
- normalised response (MDA-MB-231 [29]): 116%
- normalised response (CAL-120 [30]): 106%
- normalised response (MDA-MB-468 [31]): 79.1%
- normalised response (HCC1937 [32]): 105%
- normalised response (CAL-51 [33]): 98.2%
- normalised response (Hs578T [34]): 84.3%
- normalised response (MDA-MB-436 [35]): 83.5%
- normalised response (BT-549 [36]): 101%

Compound: CNC(=O)c1cc(Oc2ccc(NC(=O)Nc3cc(C(C)(C)C)nn3-c3ccc4ncccc4c3)c(F)c2)ccn1 [Rebastinib] (10 nM)
- normalised response (MFM-223 [1]): 96.8%
- normalised response (MDA-MB-453 [2]): 97.1%
- normalised response (HDQ-P1 [3]): 107%
- normalised response (HCC1599 [4]): 98.3%
- normalised response (CAL-85-1 [5]): 98.7%
- normalised response (DU-4475 [6]): 109%
- normalised response (BT-474 [7]): 102%
- normalised response (CAL-148 [8]): 105%
- normalised response (HCC1143 [9]): 104%
- normalised response (MCF-10A [10]): 114%
- normalised response (SK-BR-3): 101%
- normalised response (MDA-MB-231 [11]): 92%
- normalised response (CAL-120 [12]): 105%
- normalised response (MDA-MB-468 [13]): 94.7%
- normalised response (HCC1937 [14]): 102%
- normalised response (CAL-51 [15]): 90.6%
- normalised response (Hs578T [16]): 104%
- normalised response (MDA-MB-436 [17]): 106%
- normalised response (BT-549 [18]): 109%
- normalised response (MFM-223 [19]): 103%
- normalised response (MDA-MB-453 [20]): 98.2%
- normalised response (HDQ-P1 [21]): 57%
- normalised response (HCC1599 [22]): 98.2%
- normalised response (CAL-85-1 [23]): 113%
- normalised response (DU-4475 [24]): 101%
- normalised response (BT-474 [25]): 98.3%
- normalised response (CAL-148 [26]): 84.8%
- normalised response (HCC1143 [27]): 86.8%
- normalised response (MCF-10A [28]): 95.4%
- normalised response (MDA-MB-231 [29]): 105%
- normalised response (CAL-120 [30]): 101%
- normalised response (MDA-MB-468 [31]): 70.1%
- normalised response (HCC1937 [32]): 94.3%
- normalised response (CAL-51 [33]): 101%
- normalised response (Hs578T [34]): 106%
- normalised response (MDA-MB-436 [35]): 85%
- normalised response (BT-549 [36]): 107%
